For 34 molecules, Ki results are on record in patent US20110306621A1, “ACYLGUANIDINE DERIVATIVES” (priority 2009, published 2011).

pKi: −log10 of the molar value.

The assay deals with T1, human 5-HT5A receptor (Homo sapiens, UniProt P47898).
T1 construct: expressed in transfected cells; membranes used
Kind of assay: Test on a human 5-HT5A receptor binding inhibition ([3H]5-CT). As to conditions: membrane from HEK293 cells for forced expression of human 5-HT5A receptor; Ki calculated from IC50 and Kd of [3H]5-CT (4.95 nM). As for the experimental part:
The ORF (open reading frame; protein coding region) of a human 5-HT5A receptor (Genbank AF498985) was cloned from a human hippocampus cDNA library, and then inserted into a pCR2.1 vector (Invitrogen), and Escherichia coli containing the plasmid was cultured in a large amount. Next, the full-length cDNA sequence of the human 5-HT5A receptor was analyzed, and recombined into a pcDNA3.1 vector (Invitrogen) as an expression vector and cultured in a large amount. HEK293 established cells (ATCC) derived from the human fetal kidney were seeded, the expression plasmid (1 μg) obtained above were added thereto with LIPOFECTAMINE 2000 (Invitrogen; 2 μl), the gene was transfected into HEK293 cells, and the expression cells were screened with a drug-resistant marker, Geneticin (G418 sulfate 500 μg/ml; Kanto Chemical Co., Inc.). Thus prepared recombinant cells which expressed the gene were cultured in a medium containing D-MEM (Dulbecco's modified eagle medium, Sigma), 10% FCS (Fetal calf serum: fetal bovine serum), 1% Pc./Sm (Penicillin/Streptomycin, Invitrogen), and 500 μg/ml G418 for 3 days. These experimental operations followed a manual for gene operation experiment and an instruction appended in a reagent, and the like, such as a known method (Sambrook, J. et al, Molecular Cloning-A Laboratory Manual”, Cold Spring Harabor laboratory, NY, 1989).
HEK293 cells for forced expressions of a human 5-HT5A receptor were cultured in a F500 plate, and scraped with a scraper. After centrifugation, the precipitate was collected, and an incubation buffer (50 mM Tris (HCl) (pH 7.4), 10 mM MgSO4, and 0.5 mM EDTA (ethylenediamine tetraacetic acid)) was added thereto. After homogenization, it was further centrifuged, and the incubation buffer was added to the precipitate, followed by thoroughly suspending. The operation was repeated, and protein concentration was measured, thereby completing preparation of the membrane.
A solution of the compound to be tested and 100 μM 5-CT (5-carboxamidetriptamine) in DMSO was added to a 96-well plate at 2 μl/well, suspended in an incubation buffer, and a membrane from HEK293 cells for forced expressions of a human 5-HT5A receptor prepared at 200 μg/ml was added at 100 μl/well. After incubation at room temperature for 15 minutes, a [^3H]5-CT solution (2 nM [^3H]5-CT, incubation buffer) was added thereto at 100 μl/well.
Separately, 100 μl of the solution was distributed into a liquid scintillation vial, and 2 ml of Aquasol II (registered trademark) was added thereto, followed by stirring. Then, radioactivity was measured by a liquid scintillation counter. It was incubated at 37° C. for 60 minutes. The reaction mixture was sucked into 96-well GF/C filter plate that had been pre-treated with 0.2% polyethyleneimine, and washed six times with an ice-cooled, 50 mM Tris (pH 7.5) buffer. The GF/C filter plate was dried.
Microscint TMPS (registered trademark) was added thereto at 40 μl/well. Radioactivity remaining on the GF/C filter plate was measured by a top counter.
The [^3H]5-CT binding inhibiting activity by the compound to be tested in each experiment was determined as an IC50 value with a radioactivity upon addition of DMSO alone being 0% inhibition, and a radioactivity upon addition of 1 μM 5-CT being 100% inhibition. Separately, Ki values were calculated from the Kd value of the [^3H]5-CT determined from Scatchard analysis, by the following equation.
Ki=IC50 (1+Concentraion of ligand added/Kd (4.95 nM))

T1 sequence (P47898 whole entry): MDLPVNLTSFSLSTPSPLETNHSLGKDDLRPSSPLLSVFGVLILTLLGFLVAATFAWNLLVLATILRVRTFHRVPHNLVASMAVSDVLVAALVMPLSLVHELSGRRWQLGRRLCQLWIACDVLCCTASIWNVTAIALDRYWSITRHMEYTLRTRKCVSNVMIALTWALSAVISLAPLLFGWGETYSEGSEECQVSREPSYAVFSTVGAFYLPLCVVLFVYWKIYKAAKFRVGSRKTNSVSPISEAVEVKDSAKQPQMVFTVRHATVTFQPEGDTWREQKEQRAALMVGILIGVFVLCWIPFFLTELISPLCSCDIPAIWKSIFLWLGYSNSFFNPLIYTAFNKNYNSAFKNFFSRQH

For the molecule `NC(N)=NC(=O)c1ccc2cccc(C3=CCOCC3)c2c1` [Example 22], the pKi is 7.52 to 8.52. `NC(N)=NC(=O)c1ccc2cccc(-c3c(F)cncc3F)c2c1` [Example 31]: the pKi is 8.52 to 9.52. The result for `NC(N)=NC(=O)c1ccc2cccc(-c3cccc4c3OCC4)c2c1` [Example 95] reads 8.52 to 9.52. The same measure for `NC(N)=NC(=O)c1ccc2cccc(-c3cccc4ccccc34)c2c1` [Example 102]: 7.52 to 8.52; for `NC(N)=NC(=O)c1ccc2cccc(-c3cccc(F)c3F)c2c1` [Example 71]: 8.52 to 9.52. The same measure for `NC(N)=NC(=O)c1ccc2cccc(-c3c(F)ccc(F)c3O)c2c1` [Example 177]: 8.52 to 9.52. Consider `Cn1nccc1-c1cccc2ccc(C(=O)N=C(N)N)cc12` [Example 79], for which the pKi was 7.52 to 8.52.

As to `NC(N)=NC(=O)c1ccc2cccc(-c3ccnc(F)c3)c2c1` [Example 52], the negative logarithm of the Ki (pKi) was 7.52 to 8.52. Take `NC(N)=NC(=O)c1ccc2cccc(-c3cc(Cl)c(F)cc3F)c2c1` [Example 139]: the negative logarithm of the Ki (pKi) is 8.52 to 9.52.

For `NC(N)=NC(=O)c1ccc2cccc(-c3ccnc(Cl)c3F)c2c1` [Example 172], the negative logarithm of the Ki (pKi) was 7.52 to 8.52. Consider `NC(N)=NC(=O)c1ccc2ccc(F)c(-c3ccncc3Cl)c2c1` [Example 160], for which the pKi is 8.52 to 9.52. `NC(N)=NC(=O)c1ccc2cccc(-c3cc(Cl)ncc3Cl)c2c1` [Example 38]: the negative logarithm of the Ki (pKi) was 7.52 to 8.52. With `NC(N)=NC(=O)c1ccc2cccc(-c3ncccc3C(F)(F)F)c2c1` [Example 168], the pKi is 6.52 to 7.52. The same measure for `NC(N)=NC(=O)c1ccc2cccc(-c3cc(Cl)cnc3F)c2c1` [Example 84]: 7.52 to 8.52; for `Cc1nc(C)c(-c2cccc3ccc(C(=O)N=C(N)N)cc23)s1` [Example 17]: 7.52 to 8.52; for `COc1ccc(-c2c(C)ccc3ccc(C(=O)N=C(N)N)cc23)cc1` [Example 12]: 8.52 to 9.52. On to `NC(N)=NC(=O)c1ccc2cccc(-c3cncc(F)c3)c2c1` [Example 55], for which the pKi is 7.52 to 8.52. The same measure for `NC(N)=NC(=O)c1ccc2cccc(-c3c(F)cc(F)cc3F)c2c1` [Example 14]: 8.52 to 9.52; for `NC(N)=NC(=O)c1ccc2cccc(-c3cncc(Cl)c3)c2c1` [Example 74]: 7.52 to 8.52; for `NC(N)=NC(=O)c1ccc2cccc(-c3c(O)cc(F)cc3F)c2c1` [Example 131]: 8.52 to 9.52. For the molecule `NC(N)=NC(=O)c1ccc2cccc(-c3cccc(F)c3Cl)c2c1` [Example 77], the negative logarithm of the Ki (pKi) is 8.52 to 9.52. The same measure for `NC(N)=NC(=O)c1ccc2cccc(-c3cc(F)ccc3F)c2c1` [Example 68]: 8.52 to 9.52. `NC(N)=NC(=O)c1ccc2cccc(-c3ccc(Cl)cc3)c2c1` [Example 89]: the pKi is 8.52 to 9.52. The result for `NC(N)=NC(=O)c1ccc2cccc(-c3ncc(C4CC4)cc3Cl)c2c1` [Example 192] reads 7.52 to 8.52.

With `NC(N)=NC(=O)c1ccc2cccc(-c3ccc(F)nc3)c2c1` [Example 23], the pKi was 7.52 to 8.52.

Turning to `NC(N)=NC(=O)c1ccc2cccc(-c3cnccc3Cl)c2c1` [Example 73], the negative-log Ki (pKi) is 8.52 to 9.52. On to `NC(N)=NC(=O)c1ccc2cccc(-c3c(Cl)cccc3Cl)c2c1` [Example 58], for which the pKi is 8.52 to 9.52. With `NC(N)=NC(=O)c1ccc2cccc(-c3c(F)cccc3F)c2c1` [Example 36], the pKi is 8.52 to 9.52. The result for `Cc1ccc2ccc(C(=O)N=C(N)N)cc2c1-c1ccccc1O` [Example 162] reads 7.52 to 8.52; that for `NC(N)=NC(=O)c1ccc2cccc(-c3ccnc(C4CC4)c3C3CC3)c2c1` [Example 202], 7.52 to 8.52; that for `NC(N)=NC(=O)c1ccc2cccc(-c3nccc4ccccc34)c2c1` [Example 165], 7.52 to 8.52. Turning to `NC(N)=NC(=O)c1ccc2cccc(-c3ccccc3)c2c1` [Example 87], the negative-log Ki (pKi) was 8.52 to 9.52.

For the molecule `NC(N)=NC(=O)c1ccc2cccc(-c3c(O)cccc3F)c2c1` [Example 104], the negative-log Ki (pKi) was 8.52 to 9.52. `COCc1cc(F)c(-c2cccc3ccc(C(=O)N=C(N)N)cc23)c(F)c1` [Example 120]: the negative logarithm of the Ki (pKi) was 7.52 to 8.52.

As a reminder, the pKi is the Ki on a negative log10 scale, so that one unit is a factor of ten.
